Legend:
[1] = system: U2OS cells transduced by transcriptional circadian reporter mBmal1-Luc; test: Circadian rhythm period, U2OS cells with Bmal1-Luc reporter (Example 1); type: cell-based, human; conditions: luminescence 144 hours, cosinor analysis, FIG. 1
Description: (§1) Human osteosarcoma U2OS cells were grown in standard DMEM with 10% fetal calf serum. U2OS cells were transduced with lentiviral particles containing the reporter pLV6-Bmal1-Luc (S. Brown, Addgene plasmid #68833) and selected under Blasticidin. The cell line was clonally expanded and a single monoclonal cell line was used for further experiments. Cells were cultured in a 384-well plate in growth medium to 90+% confluence. Test compound or vehicle (DMSO) was applied to recording medium with 100 U/ml penicillin, 100 μg/ml streptomycin, 1× GlutaMAX (ThermoFisher, Waltham, MA, USA), 10% fetal calf serum (Sigma) and 0.1 mM Luciferin-EF (Promega Madison, WI, USA). Luminescence was recorded every hour for an additional 144 hours in Luminoskan Ascent (ThermoFisher). Circadian rhythm analysis was performed using cosinor analysis.

[2] = system: NIH3T3 cells with mPer2-Luc reporter; test: Circadian rhythm period and amplitude, NIH3T3 cells with Per2-Luc reporter (Example 2); type: cell-based, mouse
Description: Mouse embryonic fibroblasts NIH3T3 cells were grown in standard DMEM with 10% fetal calf serum. NIH3T3 cells were transfected with 1 μg of Per2-Luc reporter (Meng, 2009) using GeneJuice (Novagen) and selected under hygromycin. The cell line was clonally expanded and a single monoclonal cell line was used for further experiments. Cells were cultured in a 96-well plate in growth medium to 90+% confluence. Test compound or vehicle (DMSO) was applied to recording medium with 100 U/ml penicillin, 100 μg/ml streptomycin, 1×GlutaMAX (ThermoFisher, Waltham, MA, USA), 10% fetal calf serum (Sigma) and 0.1 mM Luciferin-EF (Promega Madison, WI, USA). Luminescence was recorded every hour for an additional 144 hours in a Luminoskan Ascent (ThermoFisher). Circadian rhythm analysis was performed using cosinor analysis. […] The concentration and level of other proteins, whose rhythmic expression is controlled by an oscillator in the brain and peripheral tissues (so-called clock-controlled genes), is also necessarily affected.

[3] = system: explanted suprachiasmatic nuclei (SCN) of mPer2Luc mice; test: PER2::Luc rhythm in organotypic SCN explants (Example 3); type: cell-based, mouse
Description: amplitude of circadian expression of the PER2::Luc clock reporter in the explanted suprachiasmatic nuclei (SCN) of the hypothalamus, the central clock of mammals, of the transgenic mouse line Male and female mPer2Luc mice (strain B6.129S6-Per2tm1Jt/J, JAX, USA) (Yoo et al., 2004) were maintained in a light/dark cycle with 12 hours of light and 12 hours of darkness (LD12: 12), killed between 12:00 and 15:00, i.e. 6-9 hours after turning on the lights, by rapid cervical dislocation under isoflurane anesthesia, their brains were removed and 250 μm thick SCN slices in ice-cold HBSS medium were prepared using a vibratome (Leica, Wetzlar, Germany). Two explants containing SCN from each brain were prepared. Individual SCN explants were then placed on Millicell Culture Inserts (Merck, Darmstadt, Germany) inside 35 mm Petri dishes with test compound or DMSO vehicle in 1 ml air-buffered recording medium supplemented with 100 U/ml penicillin, 100 μg/ml streptomycin (Sigma-Aldrich, St. Luis, MO, USA), 1×GlutaMAX (ThermoFisher, Waltham, MA, USA), 5% fetal calf serum (Sigma) and 0.1 mM Luciferin-EF (Promega Madison, WI, USA). The dishes were sealed with vacuum Vaseline and glass coverslips and placed inside a LumiCycle (Actimetrics) for bioluminescence recording. Rhythm analysis was performed in Lumicycle Analysis software (Actimetrics).

[4] = system: Bmal1 gene expression (mBmal1-Luc reporter); test: mBmal1-Luc reporter expression in U2OS cells (Example 4); type: cell-based, human; conditions: first 5-15 hours after application, FIG. 4
Description: as §1, with “1×GlutaMAX” for “1× GlutaMAX”, “for” for “for an”, “(ThermoFisher).” for “(ThermoFisher). Circadian rhythm analysis was performed using cosinor analysis.”

[5] = system: Per2 gene expression (mPer2-Luc reporter); test: mPer2-Luc reporter expression in NIH3T3 cells (Example 5); type: cell-based, mouse; conditions: NIH3T3, first 1-12 hours after application, FIG. 5
Description: Mouse embryonic fibroblasts NIH3T3 cells were grown in standard DMEM with 10% fetal calf serum. NIH3T3 cells were transfected with 1 μg of Per2-Luc reporter (Meng, 2009) using GeneJuice (Novagen) and selected under hygromycin. The cell line was clonally expanded and a single monoclonal cell line was used for further experiments. Cells were cultured in a 96-well plate in growth medium to 90+% confluence. Test compound or vehicle (DMSO) was applied to recording medium with 100 U/ml penicillin, 100 μg/ml streptomycin, 1×GlutaMAX (ThermoFisher, Waltham, MA, USA), 10% fetal calf serum (Sigma) and 0.1 mM Luciferin-EF (Promega Madison, WI, USA). Luminescence was recorded every hour for additional 144 hours in Luminoskan Ascent (ThermoFisher).

[6] = system: U2OS cells with mBmal1-Luc reporter; test: Combination with other chronotherapeutics, mBmal1-Luc U2OS cells (Example 6); type: cell-based, human
Description: as §1, with “Test compounds” for “Test compound”, “(DMSO) were” for “(DMSO) was”, “streptomycin, 1×GlutaMAX” for “streptomycin, 1× GlutaMAX”, “for” for “for an”, “performed by” for “performed using”

cancer cell line A549 = test: Resazurin viability of A549 cells, pretreatment plus antineoplastics (Example 7); type: cell-based, human; conditions: pretreatment 100 μM, antineoplastics 3.3 μM, 72 incubation, FIG. 7
Description: Human cancer cell line A549 was maintained in standard cultivation medium DMEM with 10% fetal bovine serum. 1000 cells were seeded into the wells of 384-well plate in 30 microliters of RPMI medium. After 24 hours, dexamethasone (final concentration 100 nM) was added in order to synchronize circadian oscillator together with N-(furan-2-ylmethyl)-7H-purin-6-amin (final concentration 100 μM) or DMSO vehicle. After 12 hours, DMSO vehicle or the evaluated antineoplastics (the final concentration 3.3 μM) were added. The compounds were dosed by ECHO system, the DMSO solutions were 1000-times concentrated. After 72 incubation, 1000-times concentrated solution of resazurin in DMSO to a final concentration of 0.0125 mg/ml was added. Fluorescence was measured after 3-hour incubation. […] An equivalent cytotoxic effect can be therefore achieved by an application of lower dose of antineoplastics.

[7] = system: retinal epithelium cells ARPE-19; type: cell-based; conditions: human, 72 h
Description: (§2) It is used for viability testing of eukaryotic cells. The effect of the compounds in several concentrations (maximum concentration of 100 microM and 3 three-fold dilutions) on viability of skin fibroblasts BJ and retinal epithelium cells ARPE-19 was evaluated after 72 hour treatment. The cells were maintained in standard cultivation medium DMEM with 10% fetal bovine serum. 5000 cells were seeded into 96-well plates 24 hours prior to the addition of test compound. DMSO vehicle was used as a negative control. After 72 hours, 1000-times concentrated solution of resazurin in DMSO was added to the cells zo the final concentration of 0.0125 mg/ml. Fluorescence (ex=570 nm, em=610 nm) was measured after 1 hour (ARPE-19) or 3 hours (BJ) of incubation. IC50 values were calculated from dose response curves using drc library for R programming environment.

skin fibroblasts BJ = type: cell-based; conditions: human, 72 h
Description: as §2

Human fibroblasts BJ = test: Long-term cultivation of BJ fibroblasts, cell count (Example 9); type: cell-based; conditions: 12.5-100 µM, 12th day, FIG. 8
Description: Human fibroblasts BJ were maintained in standard cultivation medium DMEM with 10% fetal bovine serum. The experiment was performed in 24-well plates. 10,000 cells in DMEM medium with 10% fetal bovine serum were seeded into the wells. The test compound was added to a final concentration in the range of 12.5-100 µM after 24 hours. DMSO vehicle was used as a negative control. In order to obtained better idea of test variability, 8 control wells were used (columns A and D). The cultivation medium containing either test compound or DMSO was replaced twice a week. The cells were trypsinized on the 12th day and counted on Coulter Z2 apparatus.

in vitro [8] = type: in vitro ADME
Description: (§3) This system is further referred to as RF-MS. Preparation of the lyophilized samples for the analysis is described in the sections dedicated to the individual methods. Lyophilized samples were dissolved in the mobile phase (95% water, 5% acetonitrile, 0.1% formic acid) with respective internal standards. The dissolved samples were aspired directly from 96-well plates into a 10 μL sample loop and passed through a C4 cartridge (Agilent Technologies) with solvent A (95% water, 0.01% formic acid, 5% acetonitrile) at a flow rate of 1.5 mL/minute for 3 seconds. After the desalting step, the analyte retained on the cartridge was eluted with solvent B (95% acetonitrile, 5% 0.01% formic acid) to the mass spectrometer at a flow rate of 0.4 mL/minute for 7 seconds. Mass spectrometry was carried out using electrospray ionization in the positive ion mode. Daughter ion peaks were identified using a multiple-reaction monitoring protocol.
Caco-2 (American Tissue Type Collection) a MDR1-MCDK (Netherlands Cancer Institute) were cultured in DMEM medium with 10% fetal bovine serum. […]
Calculations: The apparent permeability coefficient was calculated as Papp=(dQ/dt)/(C0×A), where dQ/dt is the rate of permeation of the drug across the cell monolayer, C0 is the donor compartment concentration at time t=0 and A is the area of the cell monolayer. […]

in vitro [9] = type: in vitro ADME; conditions: PAMPA, pH 7.4
Description: as §3
The parallel artificial membrane permeability assay (PAMPA) was performed using the Millipore MultiScreen filter MultiScreen-IP Durapore 0.45 μm plates and receiver plates (Merck Millipore) according to the manufacturer's protocol PC040EN00. […]
Calculations: The relative permeability log Pe was calculated as log Pe=log{Cx−ln(1−drugA/drugE)}, where C=(VA×VD)/{(VD+VA)×A×T}. […]

[10] = type: in vitro ADME; conditions: human, 2 μM
Description: as §3
Test compound (a final concentration of 2 μM) was incubated with human plasma (Transfusion Department, University Hospital Olomouc, Olomouc, Czech Republic) for 0, 15, 30, 60 and 120 min at 37° C. The reactions were stopped by addition of acetonitrile-methanol mixture (2:1). Samples were stored at −80° C. overnight and centrifuged (2811×g, 6 min, 4° C.). Supernatants were lyophilized.

c1coc(CNc2ncnc3nc[nH]c23)c1 [N-(furan-2-ylmethyl)-7H-purin-6-amine]
circadian rhythm period [1]: extends the circadian rhythm period
amplitude of circadian expression of mPer2-Luc ([2]; NIH3T3, FIG. 2): modulates the amplitude
circadian rhythm period ([2]; NIH3T3 mPer2-Luc, luminescence 144 hours, cosinor analysis, FIG. 2): prolongs the circadian rhythm period
circadian rhythm period ([3]; FIG. 3B): prolongs the circadian rhythm period
amplitude ([3]; FIG. 3C): modulates the amplitude
Bmal1 gene expression [4]: affects Bmal1 gene expression
Per2 gene expression [5]: regulates Per2 gene expression
effect on the length of the circadian period in combination with compounds that extend the circadian period ([6]; 50 μM together with PF670, T0901317, KL001, rosiglitazon, SR9009, FIG. 6A-6E): additive or even synergistic effect
effect on the period when added to harmine ([6]; 50 μM together with harmine, FIG. 6F): caused a decrease of the period
activity of antineoplastics on A549 viability after pretreatment (cancer cell line A549): increases activity of antineoplastics
IC10 [7]: > 100 µM
IC10 (skin fibroblasts BJ): > 100 µM
cell growth (cell count) (Human fibroblasts BJ): did not have a negative effect on cell growth
Papp at 1 h, 10 μM (in vitro [8]; dog, MDCK-MDR1, pH 7.4): 315 ×10⁻⁶ cm/s
Papp at 2 h, 10 μM (in vitro [8]; human, Caco-2, pH 7.4): 76 ×10⁻⁶ cm/s
Papp at 18 h, 20 AM (in vitro [9]): 5.01 ×10⁻⁶ cm/s
Plasma stability (120 min) [% intact] [10]: 91 % intact
